Data from PMC12655529, “Serendipitous Hinge Modulation Hypothetically Reprograms Caerin 1.1-LC Antibacterial Mechanism and Gram-Negative Selectivity” (Pharmaceutics, 2025).
Ends that are not written are not given here.

What was measured:
MRSA NCTC 12493 = type: cell-based, Staphylococcus aureus
Description: (§1) The antimicrobial activities of the peptides were evaluated by determining their minimal inhibitory concentration (MIC) and minimal bactericidal concentration (MBC) values following reported protocols [20]. The tested microorganisms included seven Gram-negative bacterial strains (Escherichia coli ATCC 8739, E. coli ATCC-BAA 2340, E. coli NCTC 13846, Klebsiella pneumoniae ATCC 43816, K. pneumoniae ATCC BAA-2342, Pseudomonas aeruginosa ATCC 9027, Acinetobacter baumannii ATCC BAA-747), three Gram-positive bacterial strains (Staphylococcus aureus ATCC 6538, Enterococcus faecalis NCTC 12697, MRSA NCTC 12493, and the fungal strain Candida albicans ATCC 10231. For the assay, each bacterial strain was cultured overnight at 37 °C in 100 mL of medium in a flask. The cultures were then subcultured to reach the logarithmic growth phase and diluted to 5 × 10^5 CFU/mL. Peptide samples were serially diluted two-fold in microplates, with concentrations ranging from 128 μM to 1 μM. The diluted bacterial suspensions were mixed with the peptide solutions and incubated overnight at 37 °C. The MIC values were determined by measuring the absorbance of each well using a Synergy HT plate reader (Agilent, Cheshire, UK). For MBC determination, aliquots from wells showing no visible growth were inoculated onto agar plates to assess bacterial viability. Each experiment was repeated independently three times and conducted in three independent replicates.

[1] = test system: Escherichia coli ATCC 8739; type: cell-based; conditions: ATCC 8739
Description: as §1

[2] = test system: Enterococcus faecalis NCTC 12697; type: cell-based; conditions: NCTC 12697
E. coli ATCC BAA-2340 = type: cell-based, Escherichia coli
Gram-positive bacteria = experiment: Geometric mean MIC and therapeutic index, Gram-positive; type: cell-based; conditions: geometric mean of MICs
[3] = test system: Klebsiella pneumoniae ATCC 43816; type: cell-based; conditions: ATCC 43816
[4] = test system: Staphylococcus aureus ATCC 6538; type: cell-based; conditions: ATCC 6538
Description: as §1

E. coli (ATCC-BAA 2340) = type: cell-based, Escherichia coli; conditions: ATCC-BAA 2340
Description: The peptide sensitivity was determined in different salt- and serum-containing environments. Bacterial strains were prepared following the MIC detection protocol described previously. To evaluate peptide sensitivity under physiological conditions, various concentrations of salt ions (150 mM NaCl, 4.5 mM KCl, 2 mM CaCl2, 1 mM MgCl2, 8 µM ZnCl2, 6 µM NH4Cl, or 4 µM FeCl3) and serum (10% FBS) were prepared in McCartney bottles prior to the addition of bacterial suspensions. The subcultured bacterial suspensions were then introduced to these modified media conditions. For MIC determination, the treated bacterial suspensions were diluted and dispensed into 96-well plates containing peptide solutions at graded concentrations. This assay allowed for the detection of potential alterations in MIC values, serving as an indicator of peptide sensitivity under different physiological conditions. All experiments were independently repeated three times, each with three replicates.

[5] = test system: Pseudomonas aeruginosa ATCC 9027; type: cell-based
Description: as §1

[6] = test system: K. pneumoniae ATCC BAA-2342; type: cell-based, Klebsiella pneumoniae
Description: as §1

horse red blood cells = experiment: Haemolysis assay; type: cell-based; conditions: concentration inducing 10% haemolysis of horse erythrocytes; 4% (v/v) in PBS, 2 h, 37 °C, absorbance 570 nm; no haemolysis at maximum testing concentration (128 μM) recorded as 256 μM
Description: The peptide cytotoxicity against mammalian erythrocytes was evaluated by haemolysis assay on horse red blood cells (E&O Laboratories Ltd., Falkirk, UK). Fresh horse blood was washed three times with PBS and resuspended to a final concentration of 4% (v/v) in PBS. The diluted blood suspension was then mixed with peptide solutions at varying concentrations and incubated for 2 h at 37 °C. Red blood cell suspensions treated with 0.1% Triton X-100 and PBS were used as controls. The Triton X-100-treated suspension was the positive control (for 100% haemolysis), while the PBS-treated suspension was the blank control. Following incubation, the mixtures were centrifuged at 1000× g for 10 min to separate erythrocytes from the supernatant. The absorbance of the supernatants was detected at 570 nm. The percentage haemolysis was calculated by following the equationPercentage Haemolysis = (AbsSample − AbsBlank)/(AbsPositive − AbsBlank) × 100%

[7] = test system: Acinetobacter baumannii ATCC BAA-747; type: cell-based; conditions: ATCC BAA-747
Description: as §1

E. coli NCTC 13846 = type: cell-based, Escherichia coli
Description: as §1

## GLLSVLGSLKKIVPHVVPLIAKKL-NH2 [Caerin 1.1-LC 11K.22K]
MRSA NCTC 12493
  MBC, MRSA (NCTC 12493): 8 µM
  MIC, MRSA (NCTC 12493): 4 µM
[1]
  MBC, E. coli (ATCC 8739): 2 µM
  MIC, E. coli (ATCC 8739): 1 µM
[2]
  MBC, E. faecalis (NCTC 12697): 64 µM
  MIC, E. faecalis (NCTC 12697): 64 µM
E. coli ATCC BAA-2340
  MBC, E. coli (ATCC BAA-2340): 2 µM
  MIC, E. coli (ATCC BAA-2340): 2 µM
Gram-positive bacteria
  GM MIC Gram-Positive: 3.17 µM
[3]
  MBC, K. pneumoniae (ATCC 43816): 16 µM
  MIC, K. pneumoniae (ATCC 43816): 8 µM
[4]
  MBC, S. aureus (ATCC 6538): 16 µM
  MIC, S. aureus (ATCC 6538): 4 µM
E. coli (ATCC-BAA 2340)
  MIC, Ca^2+: 32 µM
  MIC, Control: 4 µM
  MIC, FBS: 16 µM
  MIC, Fe^3+: 8 µM
  MIC, K^+: 8 µM
  MIC, Mg^2+: 16 µM
  MIC, NH4^+: 8 µM
  MIC, Na^+: 8 µM
[5]
  MBC, P. aeruginosa (ATCC 9027): 8 µM
  MIC, P. aeruginosa (ATCC 9027): 4 µM
[6]
  MBC, K. pneumoniae (ATCC BAA-2342): 4 µM
  MIC, K. pneumoniae (ATCC BAA-2342): 4 µM
Horse red blood cells
  HC10: 10.3 µM
[7]
  MBC, A. baumannii (ATCC BAA-747): 16 µM
  MIC, A. baumannii (ATCC BAA-747): 4 µM
E. coli NCTC 13846
  MBC, E. coli (NCTC 13846): 8 µM
  MIC, E. coli (NCTC 13846): 4 µM

## GLLSVLGSLKLIVPRVVPLIAEKL-NH2 [Caerin 1.1-LC PRVVP]
MRSA NCTC 12493
  MBC, MRSA (NCTC 12493): 8 µM
  MIC, MRSA (NCTC 12493): 4 µM
[1]
  MBC, E. coli (ATCC 8739): 8 µM
  MIC, E. coli (ATCC 8739): 2 µM
[2]
  MBC, E. faecalis (NCTC 12697): >128 µM
  MIC, E. faecalis (NCTC 12697): >128 µM
E. coli ATCC BAA-2340
  MBC, E. coli (ATCC BAA-2340): 4 µM
  MIC, E. coli (ATCC BAA-2340): 2 µM
Gram-positive bacteria
  GM MIC Gram-Positive: 5.94 µM
[3]
  MBC, K. pneumoniae (ATCC 43816): 16 µM
  MIC, K. pneumoniae (ATCC 43816): 8 µM
[4]
  MBC, S. aureus (ATCC 6538): 16 µM
  MIC, S. aureus (ATCC 6538): 8 µM
[5]
  MBC, P. aeruginosa (ATCC 9027): 8/8 µM
  MIC, P. aeruginosa (ATCC 9027): 8/8 µM
[6]
  MBC, K. pneumoniae (ATCC BAA-2342): 32 µM
  MIC, K. pneumoniae (ATCC BAA-2342): 8 µM
Horse red blood cells
  HC10: 25.8 µM
[7]
  MBC, A. baumannii (ATCC BAA-747): 32 µM
  MIC, A. baumannii (ATCC BAA-747): 32 µM
E. coli NCTC 13846
  MBC, E. coli (NCTC 13846): 16 µM
  MIC, E. coli (NCTC 13846): 4 µM

## GLLSVLKSLKKIVPHVVPKIAEKL-NH2 [Caerin 1.1-LC 7.11.19K]
MRSA NCTC 12493
  MBC, MRSA (NCTC 12493): 8 µM
  MIC, MRSA (NCTC 12493): 8 µM
[1]
  MBC, E. coli (ATCC 8739): 2 µM
  MIC, E. coli (ATCC 8739): 2 µM
[2]
  MBC, E. faecalis (NCTC 12697): 128 µM
  MIC, E. faecalis (NCTC 12697): 128 µM
E. coli ATCC BAA-2340
  MBC, E. coli (ATCC BAA-2340): 2 µM
  MIC, E. coli (ATCC BAA-2340): 2 µM
Gram-positive bacteria
  GM MIC Gram-Positive: 3.28 µM
[3]
  MBC, K. pneumoniae (ATCC 43816): 4 µM
  MIC, K. pneumoniae (ATCC 43816): 4 µM
[4]
  MBC, S. aureus (ATCC 6538): 4 µM
  MIC, S. aureus (ATCC 6538): 4 µM
E. coli (ATCC-BAA 2340)
  MIC, Ca^2+: 64 µM
  MIC, Control: 2 µM
  MIC, FBS: 16 µM
  MIC, Fe^3+: 2 µM
  MIC, K^+: 2 µM
  MIC, Mg^2+: 4 µM
  MIC, NH4^+: 2 µM
  MIC, Na^+: 2 µM
[5]
  MBC, P. aeruginosa (ATCC 9027): 4/4 µM
  MIC, P. aeruginosa (ATCC 9027): 4/4 µM
[6]
  MBC, K. pneumoniae (ATCC BAA-2342): 4 µM
  MIC, K. pneumoniae (ATCC BAA-2342): 4 µM
Horse red blood cells
  HC10: 46.5 µM
[7]
  MBC, A. baumannii (ATCC BAA-747): 8 µM
  MIC, A. baumannii (ATCC BAA-747): 4 µM
E. coli NCTC 13846
  MBC, E. coli (NCTC 13846): 4 µM
  MIC, E. coli (NCTC 13846): 4 µM

## GLLSVLGSLKLIVPHIIPLIAEKL-NH2 [Caerin 1.1-LC PHIIP]
MRSA NCTC 12493
  MBC, MRSA (NCTC 12493): 4 µM
  MIC, MRSA (NCTC 12493): 4 µM
[1]
  MBC, E. coli (ATCC 8739): 8 µM
  MIC, E. coli (ATCC 8739): 4 µM
[2]
  MBC, E. faecalis (NCTC 12697): >128 µM
  MIC, E. faecalis (NCTC 12697): >128 µM
E. coli ATCC BAA-2340
  MBC, E. coli (ATCC BAA-2340): 8 µM
  MIC, E. coli (ATCC BAA-2340): 4 µM
Gram-positive bacteria
  GM MIC Gram-Positive: 8 µM
[3]
  MBC, K. pneumoniae (ATCC 43816): 16 µM
  MIC, K. pneumoniae (ATCC 43816): 16 µM
[4]
  MBC, S. aureus (ATCC 6538): 8 µM
  MIC, S. aureus (ATCC 6538): 4 µM
[5]
  MBC, P. aeruginosa (ATCC 9027): 64 µM
  MIC, P. aeruginosa (ATCC 9027): 32 µM
[6]
  MBC, K. pneumoniae (ATCC BAA-2342): 16 µM
  MIC, K. pneumoniae (ATCC BAA-2342): 8 µM
Horse red blood cells
  HC10: 2.4 µM
[7]
  MBC, A. baumannii (ATCC BAA-747): 8 µM
  MIC, A. baumannii (ATCC BAA-747): 8 µM
E. coli NCTC 13846
  MBC, E. coli (NCTC 13846): 8 µM
  MIC, E. coli (NCTC 13846): 4 µM

## GLLSVLGSLKLIVPKVVPLIAEKL-NH2 [Caerin 1.1-LC PKVVP]
MRSA NCTC 12493
  MBC, MRSA (NCTC 12493): 8 µM
  MIC, MRSA (NCTC 12493): 8 µM
[1]
  MBC, E. coli (ATCC 8739): 8 µM
  MIC, E. coli (ATCC 8739): 4 µM
[2]
  MBC, E. faecalis (NCTC 12697): >128 µM
  MIC, E. faecalis (NCTC 12697): >128 µM
E. coli ATCC BAA-2340
  MBC, E. coli (ATCC BAA-2340): 4 µM
  MIC, E. coli (ATCC BAA-2340): 2 µM
Gram-positive bacteria
  GM MIC Gram-Positive: 12.14 µM
[3]
  MBC, K. pneumoniae (ATCC 43816): 32 µM
  MIC, K. pneumoniae (ATCC 43816): 16 µM
[4]
  MBC, S. aureus (ATCC 6538): 32 µM
  MIC, S. aureus (ATCC 6538): 16 µM
[5]
  MBC, P. aeruginosa (ATCC 9027): 32 µM
  MIC, P. aeruginosa (ATCC 9027): 8 µM
[6]
  MBC, K. pneumoniae (ATCC BAA-2342): 32 µM
  MIC, K. pneumoniae (ATCC BAA-2342): 8 µM
Horse red blood cells
  HC10: 25.8 µM
[7]
  MBC, A. baumannii (ATCC BAA-747): 32 µM
  MIC, A. baumannii (ATCC BAA-747): 32 µM
E. coli NCTC 13846
  MBC, E. coli (NCTC 13846): 4 µM
  MIC, E. coli (NCTC 13846): 2 µM
